Source: patent US12479838B2, “D3 receptor agonist compounds; methods of preparation; intermediates thereof; and methods of use thereof” (THE UNITED STATES OF AMERICA, AS REPRESENTED BY THE …, priority 2019, dated 2025)
Where two headings read alike, the source gives them in different places.

How the values were obtained:
[1] = biological target: human D2LR (Homo sapiens (Human), UniProt P14416); assay: Radioligand competition binding vs. [3H]-(R)-(+)-7-OH-DPAT, hD2R
[2] = biological target: human D3R (Homo sapiens (Human), UniProt P35462); assay: Radioligand competition binding vs. [3H]-(R)-(+)-7-OH-DPAT, hD3R; settings: for D2R/D3R: ratio of Ki, D3R selectivity over D2R
[3] = vs. [3H]-(R)-(+)-7-OH-DPAT, HEK293 cells stably expressing hD2R, read-out: D2R Ki ± SEM
[4] = vs. [3H]-(R)-(+)-7-OH-DPAT, HEK293 cells stably expressing hD3R, read-out: D3R Ki ± SEM

Sequence of human D3R (P35462 whole entry): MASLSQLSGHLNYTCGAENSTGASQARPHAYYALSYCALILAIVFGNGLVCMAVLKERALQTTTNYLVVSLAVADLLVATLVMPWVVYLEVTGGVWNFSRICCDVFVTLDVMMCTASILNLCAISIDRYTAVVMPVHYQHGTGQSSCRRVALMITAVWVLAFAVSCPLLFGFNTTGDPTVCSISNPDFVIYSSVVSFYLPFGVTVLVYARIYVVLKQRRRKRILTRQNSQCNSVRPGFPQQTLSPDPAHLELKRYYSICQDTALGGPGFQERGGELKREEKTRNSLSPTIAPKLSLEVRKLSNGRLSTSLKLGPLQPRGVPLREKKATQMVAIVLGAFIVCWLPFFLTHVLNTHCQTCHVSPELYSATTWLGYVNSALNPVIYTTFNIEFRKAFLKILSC
Sequence of human D2LR (P14416 whole entry): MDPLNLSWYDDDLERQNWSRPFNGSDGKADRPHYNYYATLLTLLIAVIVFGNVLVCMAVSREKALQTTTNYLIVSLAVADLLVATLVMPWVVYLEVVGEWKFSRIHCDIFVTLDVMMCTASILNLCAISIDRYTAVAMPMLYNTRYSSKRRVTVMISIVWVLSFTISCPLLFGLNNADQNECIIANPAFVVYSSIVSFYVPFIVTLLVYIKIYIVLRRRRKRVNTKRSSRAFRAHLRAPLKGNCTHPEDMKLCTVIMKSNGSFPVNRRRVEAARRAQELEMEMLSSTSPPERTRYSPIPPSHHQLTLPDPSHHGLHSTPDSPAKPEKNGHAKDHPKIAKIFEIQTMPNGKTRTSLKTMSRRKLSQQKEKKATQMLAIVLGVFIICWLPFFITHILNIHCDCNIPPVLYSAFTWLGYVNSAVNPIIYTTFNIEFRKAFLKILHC

CCCN1CCO[C@@H]2c3cc(OCCCCNC(=O)c4ccc5scnc5c4)ccc3OC[C@H]21 [AB04-41, N-(4-(((4aR,10bR)-4-propyl-3,4,4a,10b-tetrahydro-2H,5H-chromeno[4,3-b][1,4]oxazin-9-yl)oxy)butyl)benzo[d]thiazole-5-carboxamide]
Ki [1, 3]: 9160 nM | D2R/D3R ([2]; vs. [3H]-(R)-(+)-7-OH-DPAT): 4.30 | Ki [2, 4]: 2130 nM

CCCN1CCO[C@@H]2c3cc(OCCCCNC(=O)c4cc5ccccc5o4)ccc3OC[C@H]21 [SLC01-26, N-(4-(((4aR,10bR)-4-propyl-3,4,4a,10b-tetrahydro-2H,5H-chromeno[4,3-b][1,4]oxazin-9-yl)oxy)butyl)benzofuran-2-carboxamide]
Ki [1, 3]: 9450 nM | D2R/D3R ([2]; vs. [3H]-(R)-(+)-7-OH-DPAT): 1.57 | Ki [2, 4]: 6010 nM

CCCN1CCO[C@@H]2c3cc(OCCCCNC(=O)c4nc5ccccc5s4)ccc3OC[C@H]21 [SLC01-35, N-(4-(((4aR,10bR)-4-propyl-3,4,4a,10b-tetrahydro-2H,5H-chromeno[4,3-b][1,4]oxazin-9-yl)oxy)butyl)benzo[d]thiazole-2-carboxamide]
Ki [1, 3]: 5510 nM | D2R/D3R ([2]; vs. [3H]-(R)-(+)-7-OH-DPAT): 4.14 | Ki [2, 4]: 1330 nM

CCCN1CCO[C@@H]2c3cc(O)ccc3OC[C@@H]21 (racemic) [(±)-cis-2, reference compound]
Ki [1]: > 10000 nM | Ki [2]: > 10000 nM

CCCN1CCO[C@@H]2c3cc(OCCCCNC(=O)c4ccc5c(c4)Cc4ccccc4-5)ccc3OC[C@H]21 [SLC01-24, N-(4-(((4aR,10bR)-4-propyl-3,4,4a,10b-tetrahydro-2H,5H-chromeno[4,3-b][1,4]oxazin-9-yl)oxy)butyl)-9H-fluorene-2-carboxamide]
Ki [1, 3]: 6710 nM | D2R/D3R ([2]; vs. [3H]-(R)-(+)-7-OH-DPAT): 8.33 | Ki [2, 4]: 806 ± 185 nM

Oc1ccc2c(c1)[C@H]1OCCN[C@@H]1CO2 [AB04-75, (4aR,10bR)-3,4,4a,10b-tetrahydro-2H,5H-chromeno[4,3-b][1,4]oxazin-9-ol, reference compound]
Ki [1, 3]: 4250 nM | D2R/D3R ([2]; vs. [3H]-(R)-(+)-7-OH-DPAT): 10.5 | Ki [2, 4]: 403 ± 5.55 nM

C[C@H]1CO[C@@H](c2ccc(N)nc2)CN1CCCCOc1ccc2c(c1)NC(=O)CC2 [AB04-96, 7-(4-((2S,5S)-2-(6-aminopyridin-3-yl)-5-methylmorpholino)butoxy)-3,4-dihydroquinolin-2(1H)-one]
Ki [1, 3]: 34.6 ± 4.86 nM | D2R/D3R ([2]; vs. [3H]-(R)-(+)-7-OH-DPAT): 1.11 | D3R affinity, fold better than its (2R,5S) diastereoisomer ([2]; vs. [3H]-(R)-(+)-7-OH-DPAT): 775 fold | Ki [2, 4]: 31.2 ± 8.72 nM

O=C(NCCCCNC1COc2ccc(O)cc2C1=O)c1cc2ccccc2[nH]1 (single isomer, unassigned) [SLC02-16A, N-(4-((6-hydroxy-4-oxochroman-3-yl)amino)butyl)-1H-indole-2-carboxamide]
Ki [1, 3]: 245 ± 32 nM | D2R/D3R ([2]; vs. [3H]-(R)-(+)-7-OH-DPAT): 0.710 | Ki [2, 4]: 354 ± 45.1 nM

C[C@H]1CO[C@@H](c2ccc(N)nc2)CN1C/C=C/COc1ccc2c(c1)NC(=O)CC2 [FOB01-44, 7-(((E)-4-((2S,5S)-2-(6-aminopyridin-3-yl)-5-methylmorpholino)but-2-en-1-yl)oxy)-3,4-dihydroquinolin-2(1H)-one]
Ki [1, 3]: 341 ± 27.6 nM | D2R/D3R ([2]; vs. [3H]-(R)-(+)-7-OH-DPAT): 0.297 | Ki [2, 4]: 1150 nM

C[C@H]1CO[C@@H](c2ccc(N)nc2)CN1 [AB04-85B, 5-((2S,5S)-5-methylmorpholin-2-yl)pyridin-2-amine]
Ki [1, 3]: 2340 nM | D2R/D3R ([2]; vs. [3H]-(R)-(+)-7-OH-DPAT): 5.52 | Ki [2, 4]: 424 ± 32.4 nM

CCCN1CCO[C@@H]2c3cc(OCCCCN4C(=O)c5ccccc5C4=O)ccc3OC[C@H]21 [AB02-119]
Ki [1, 3]: 2510 nM | D2R/D3R ([2]; vs. [3H]-(R)-(+)-7-OH-DPAT): 2.11 | Ki [2, 4]: 1190 nM

C[C@H]1CO[C@H](c2ccc(N)nc2)CN1CC1CC1CNC(=O)c1cc2ccccc2[nH]1 (stereo partly drawn) [cis-FOB01-60B, cis-N-((2-(((2R,5S)-2-(6-aminopyridin-3-yl)-5-methylmorpholino)methyl)cyclopropyl)methyl)-1H-indole-2-carboxamide]
Ki [1, 3]: 7730 nM | D2R/D3R ([2]; vs. [3H]-(R)-(+)-7-OH-DPAT): 0.235 | Ki [2, 4]: 32900 nM

C[C@H]1CO[C@H](c2ccc(N)nc2)CN1C/C=C/COc1ccc2c(c1)NC(=O)CC2 [FOB01-42, 7-(((E)-4-((2R,5S)-2-(6-aminopyridin-3-yl)-5-methylmorpholino)but-2-en-1-yl)oxy)-3,4-dihydroquinolin-2(1H)-one]
Ki [1, 3]: 21100 nM | D2R/D3R ([2]; vs. [3H]-(R)-(+)-7-OH-DPAT): 0.289 | Ki [2, 4]: 73000 nM

CCCN1CCO[C@@H]2c3cc(OCCCCOc4ccc5c(c4)NC(=O)CC5)ccc3OC[C@H]21 [AB04-38, 7-(4-(((4aR,10bR)-4-propyl-3,4,4a,10b-tetrahydro-2H,5H-chromeno[4,3-b][1,4]oxazin-9-yl)oxy)butoxy)-3,4-dihydroquinolin-2(1H)-one]
Ki [1, 3]: 10100 nM | D2R/D3R ([2]; vs. [3H]-(R)-(+)-7-OH-DPAT): 6.35 | Ki [2, 4]: 1590 nM

C[C@H]1CO[C@H](c2ccc(N)nc2)CN1CC1CC1CNC(=O)c1cc2ccccc2[nH]1 (mixture of isomers) [rac-trans-AB05-26, trans-N-((2-(((2R,5S)-2-(6-aminopyridin-3-yl)-5-methylmorpholino)methyl)cyclopropyl)methyl)-1H-indole-2-carboxamide]
Ki [1, 3]: 14100 nM | D2R/D3R ([2]; vs. [3H]-(R)-(+)-7-OH-DPAT): 0.213 | Ki [2, 4]: 66200 nM

C[C@H]1CO[C@@H](c2ccc(N)nc2)CN1CC1CC1CNC(=O)c1cc2ccccc2[nH]1 (stereo partly drawn) [cis-FOB01-59A, cis-N-((2-(((2S,5S)-2-(6-aminopyridin-3-yl)-5-methylmorpholino)methyl)cyclopropyl)methyl)-1H-indole-2-carboxamide]
Ki [1, 3]: 1070 nM | D2R/D3R ([2]; vs. [3H]-(R)-(+)-7-OH-DPAT): 0.498 | Ki [2, 4]: 2150 nM

CCCN1CCO[C@@H]2c3cc(OCCCCNC(=O)c4cc5cccnc5[nH]4)ccc3OC[C@H]21 [AB04-42, N-(4-(((4aR,10bR)-4-propyl-3,4,4a,10b-tetrahydro-2H,5H-chromeno[4,3-b][1,4]oxazin-9-yl)oxy)butyl)-1H-pyrrolo[2,3-b]pyridine-2-carboxamide]
Ki [1, 3]: 27000 nM | D2R/D3R ([2]; vs. [3H]-(R)-(+)-7-OH-DPAT): 3.12 | Ki [2, 4]: 8660 nM

O=C1CCc2ccc(OCCCCN3CCO[C@@H]4c5cc(O)ccc5OC[C@H]43)cc2N1 [SLC02-11, 7-(4-((4aR,10bR)-9-hydroxy-2,3,4a,10b-tetrahydro-4H,5H-chromeno[4,3-b][1,4]oxazin-4-yl)butoxy)-3,4-dihydroquinolin-2(1H)-one]
Ki [1, 3]: 6260 nM | D2R/D3R ([2]; vs. [3H]-(R)-(+)-7-OH-DPAT): 0.554 | Ki [2, 4]: 11300 nM

C[C@H]1CO[C@H](c2ccc(N)nc2)CN1CCCCOc1ccc2c(c1)NC(=O)CC2 [AB04-95, 7-(4-((2R,5S)-2-(6-aminopyridin-3-yl)-5-methylmorpholino)butoxy)-3,4-dihydroquinolin-2(1H)-one]
Ki [1, 3]: 2660 nM | D2R/D3R ([2]; vs. [3H]-(R)-(+)-7-OH-DPAT): 0.110 | Ki [2, 4]: 24200 nM

C[C@H]1CO[C@@H](c2ccc(N)nc2)CN1CC1CC1CNC(=O)c1cc2ccccc2[nH]1 (stereo partly drawn) [trans-AB05-27B, trans-N-((2-(((2S,5S)-2-(6-aminopyridin-3-yl)-5-methylmorpholino)methyl)cyclopropyl)methyl)-1H-indole-2-carboxamide]
Ki [1, 3]: 707 ± 19.8 nM | D2R/D3R ([2]; vs. [3H]-(R)-(+)-7-OH-DPAT): 1.75 | Ki ([2]; vs. [3H]-(R)-(+)-7-OH-DPAT, HEK293 cells stably expressing hD3R, listed as AB05-27B, read-out: D3R Ki ± SEM): 404 nM | Ki [2, 4]: 404 ± 34 nM

CCCN(CCC)c1ccc(C2CN(CCC)C(C)CO2)cn1 (stereo not drawn) [AB03-14]
Ki [1, 3]: > 5000 nM | Ki [2, 4]: > 10000 nM

C[C@H]1CO[C@H](c2ccc(N)nc2)CN1 [AB04-85A, 5-((2R,5S)-5-methylmorpholin-2-yl)pyridin-2-amine]
Ki [1, 3]: 7100 nM | D2R/D3R ([2]; vs. [3H]-(R)-(+)-7-OH-DPAT): 4.67 | Ki [2, 4]: 1520 nM

CCCN1CCO[C@@H]2c3cc(OCCCCNC(=O)c4cc5ccccc5[nH]4)ccc3OC[C@H]21 [SLC01-25, N-(4-(((4aR,10bR)-4-propyl-3,4,4a,10b-tetrahydro-2H,5H-chromeno[4,3-b][1,4]oxazin-9-yl)oxy)butyl)-1H-indole-2-carboxamide]
Ki [1, 3]: 3860 nM | D2R/D3R ([2]; vs. [3H]-(R)-(+)-7-OH-DPAT): 6.30 | Ki [2, 4]: 613 ± 50.6 nM
